In patent US10927078B2, “Modulators of indoleamine 2,3-dioxygenase” (GLAXOSMITHKLINE INTELLECTUAL PROPERTY DEVELOPMENT LIMITED, priority 2017, dated 2021):
pIC50: −log10 of the molar value. Like-named read-outs stand apart in the source and are kept apart here.

Target: indoleamine 2, 3-dioxygenase (IDO1) (Homo sapiens, UniProt P14902)
Assay: PBMC IDO1 assay (kynurenine via mass spectrometry)
Type: cell-based
Details: for IC50: human PBMC stimulated with IFN-γ and LPS, 2 days, kynurenine by mass spectrometry, recorded as pIC50, read-out: PBMC PXC50_ (converted)
Description: Compounds of the present invention were tested via high-throughput cellular assays utilizing detection of kynurenine via mass spectrometry and cytotoxicity as end-points. For the mass spectrometry and cytotoxicity assays, human peripheral blood mononuclear cells (PBMC) (PB003F; AllCells®, Alameda, Calif.) were stimulated with human interferon-γ (IFN-γ) (Sigma-Aldrich Corporation, St. Louis, Mo.) and lipopolysaccharide from Salmonella minnesota (LPS) (Invivogen, San Diego, Calif.) to induce the expression of indoleamine 2, 3-dioxygenase (IDO1). Compounds with IDO1 inhibitory properties decreased the amount of kynurenine produced by the cells via the tryptophan catabolic pathway. Cellular toxicity due to the effect of compound treatment was measured using CellTiter-Glo® reagent (CTG) (Promega Corporation, Madison, Wis.), which is based on luminescent detection of ATP, an indicator of metabolically active cells.
In preparation for the assays, test compounds were serially diluted 3-fold in DMSO from a typical top concentration of 5 mM and plated at 0.5 μL in 384-well, polystyrene, clear bottom, tissue culture treated plates with lids (Greiner Bio-One, Kremsmünster, Austria) to generate 11-point dose response curves. Low control wells (0% kynurenine or 100% cytotoxicity) contained either 0.5 μL of DMSO in the presence of unstimulated (-IFN-γ/-LPS) PBMCs for the mass spectrometry assay or 0.5 μL of DMSO in the absence of cells for the cytotoxicity assay, and high control wells (100% kynurenine or 0% cytotoxicity) contained 0.5 μL of DMSO in the presence of stimulated (+IFN-γ/+LPS) PBMCs for both the mass spectrometry and cytotoxicity assays.
Frozen stocks of PBMCs were washed and recovered in RPMI 1640 medium (Thermo Fisher Scientific, Inc., Waltham, Mass.) supplemented with 10% v/v heat-inactivated fetal bovine serum (FBS) (Thermo Fisher Scientific, Inc., Waltham, Mass.), and 1× penicillin-streptomycin antibiotic solution (Thermo Fisher Scientific, Inc., Waltham, Mass.). The cells were diluted to 1,000,000 cells/mL in the supplemented RPMI 1640 medium. 50 μL of either the cell suspension, for the mass spectrometry assay, or medium alone, for the cytotoxicity assay, were added to the low control wells, on the previously prepared 384-well compound plates, resulting in 50,000 cells/well or 0 cells/well respectively. IFN-γ and LPS were added to the remaining cell suspension at final concentrations of 100 ng/ml and 50 ng/ml respectively, and 50 μL of the stimulated cells were added to all remaining wells on the 384-well compound plates. The plates, with lids, were then placed in a 37° C., 5% CO2 humidified incubator for 2 days.
Following incubation, the 384-well plates were removed from the incubator and allowed to equilibrate to room temperature for 30 minutes. For the cytotoxicity assay, CellTiter-Glo® was prepared according to the manufacturer's instructions, and 40 μL were added to each plate well. After a twenty minute incubation at room temperature, luminescence was read on an EnVision® Multilabel Reader (PerkinElmer Inc., Waltham, Mass.). For the mass spectrometry assay, 10 μL of supernatant from each well of the compound-treated plates were added to 40 μL of acetonitrile, containing 10 μM of an internal standard for normalization, in 384-well, polypropylene, V-bottom plates (Greiner Bio-One, Kremsmünster, Austria) to extract the organic analytes. Following centrifugation at 2000 rpm for 10 minutes, 10 μL from each well of the acetonitrile extraction plates were added to 90 μL of sterile, distilled H2O in 384-well, polypropylene, V-bottom plates for analysis of kynurenine and the internal standard on the RapidFire 300 (Agilent Technologies, Santa Clara, Calif.) and 4000 QTRAP MS (SCIEX, Framingham, Mass.). MS data were integrated using Agilent Technologies' RapidFire Integrator software, and data were normalized for analysis as a ratio of kynurenine to the internal standard. […]

Sequence of indoleamine 2, 3-dioxygenase (IDO1) (P14902 whole entry): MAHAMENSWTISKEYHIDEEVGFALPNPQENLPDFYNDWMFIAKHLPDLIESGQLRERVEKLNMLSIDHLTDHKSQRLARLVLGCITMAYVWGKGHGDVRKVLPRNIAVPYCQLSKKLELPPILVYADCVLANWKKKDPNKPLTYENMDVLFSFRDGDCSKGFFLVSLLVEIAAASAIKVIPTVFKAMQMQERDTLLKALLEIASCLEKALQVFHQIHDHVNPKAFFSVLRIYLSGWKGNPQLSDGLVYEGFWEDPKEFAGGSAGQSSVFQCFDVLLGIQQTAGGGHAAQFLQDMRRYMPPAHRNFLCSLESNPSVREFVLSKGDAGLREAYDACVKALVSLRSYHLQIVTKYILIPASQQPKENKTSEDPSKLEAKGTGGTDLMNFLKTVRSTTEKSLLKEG

Compound	pIC50	IC50 [nM]
O=C(N[C@H](c1ccccc1)C1CCN(C(=O)Oc2cccnc2F)CC1)c1ccc(Cl)cc1 [Example 31, 2-fluoropyridin-3-yl 4-[(S)-[(4-chlorophenyl)formamido](phenyl)methyl]piperidine-1-carboxylate]	8.30	
Cc1ccc(C(=O)N[C@H](C2CC2)C2CCN(C(=O)Oc3ccnc(C)c3C)CC2)s1 [Example 32, 2,3-dimethylpyridin-4-yl 4-[(R)-cyclopropyl[(5-methylthiophen-2-yl)formamido]methyl]piperidine-1-carboxylate]		5.01
Cc1c(OC(=O)N2CCC(C(CC(C)C)NC(=O)c3ccc(F)cc3)CC2)ccnc1F (centres unmarked) [Example 33, 2-fluoro-3-methylpyridin-4-yl 4-{1-[(4-fluorophenyl)formamido]-3-methylbutyl}piperidine-1-carboxylate]		6.31
CC(C)CC(NC(=O)c1ccc(Cl)cc1)C1CCN(C(=O)Oc2cccnc2C(C)C)CC1 (centres unmarked) [Example 34, 2-(propan-2-yl)pyridin-3-yl 4-{1-[(4-chlorophenyl)formamido]-3-methylbutyl}piperidine-1-carboxylate]	8.20	
Cc1nccc(OC(=O)N2CCC(C(CC(C)C)NC(=O)c3ccc(Cl)cc3)CC2)c1C (centres unmarked) [Example 35, 2,3-dimethylpyridin-4-yl 4-{1-[(4-chlorophenyl)formamido]-3-methylbutyl}piperidine-1-carboxylate]		6.31
Cc1c(F)cccc1OC(=O)N1CCC([C@@H](C)NC(=O)c2ccc(Cl)s2)CC1 [Example 36, 3-fluoro-2-methylphenyl 4-[(1R)-1-[(5-chlorothiophen-2-yl)formamido]ethyl]piperidine-1-carboxylate]		6.31
CC(C)CC(NC(=O)c1ccc(F)cc1)C1CCN(C(=O)Oc2ccccc2)CC1 (centres unmarked) [Example 37, phenyl 4-{1-[(4-fluorophenyl)formamido]-3-methylbutyl}piperidine-1-carboxylate]		7.94
C[C@@H](NC(=O)c1ccc(Cl)s1)C1CCN(C(=O)Oc2ccccc2)CC1 [Example 38, phenyl 4-[(1R)-1-[(5-chlorothiophen-2-yl)formamido]ethyl]piperidine-1-carboxylate]		7.94
CC(C)CC(NC(=O)c1ccccc1)C1CCN(C(=O)Oc2ccccc2)CC1 (centres unmarked) [Example 39, phenyl 4-[3-methyl-1-(phenylformamido)butyl]piperidine-1-carboxylate]		7.94
Cc1cccc(OC(=O)N2CCC(C(CC(C)C)NC(=O)c3ccc(F)cc3)CC2)c1C (centres unmarked) [Example 40, 2,3-dimethylphenyl 4-{1-[(4-fluorophenyl)formamido]-3-methylbutyl}piperidine-1-carboxylate]		7.94
CC(C)CC(NC(=O)c1ccc(F)cc1)C1CCN(C(=O)Oc2cccc(C#N)c2F)CC1 (centres unmarked) [Example 41, 3-cyano-2-fluorophenyl 4-{1-[(4-fluorophenyl)formamido]-3-methylbutyl}piperidine-1-carboxylate]		7.94
COCCC[C@@H](NC(=O)c1ccc(F)cc1)C1CCN(C(=O)Oc2cccc(F)c2C)CC1 [Example 42, 3-fluoro-2-methylphenyl 4-[(1R)-1-[(4-fluorophenyl)formamido]-4-methoxybutyl]piperidine-1-carboxylate]		7.94
O=C(NC(c1ccccc1)C1CCN(C(=O)Oc2ccccc2)CC1)c1ccccc1 (centres unmarked) [Example 43, phenyl 4-[phenyl(phenylformamido)methyl]piperidine-1-carboxylate]		10
Cc1nccc(OC(=O)N2CCC(C(CC(C)C)NC(=O)c3ccc(F)cc3)CC2)c1C (centres unmarked) [Example 44, 2,3-dimethylpyridin-4-yl 4-{1-[(4-fluorophenyl)formamido]-3-methylbutyl}piperidine-1-carboxylate]		10
CC(C)CC(NC(=O)c1ccc(F)cc1)C1CCN(C(=O)Oc2cncc(F)c2)CC1 (centres unmarked) [Example 45, 5-fluoropyridin-3-yl 4-{1-[(4-fluorophenyl)formamido]-3-methylbutyl}piperidine-1-carboxylate]	8.00	
O=C(NC(C1CC1)C1CCN(C(=O)Oc2ccccc2)CC1)c1ccc(Cl)s1 (centres unmarked) [Example 46, phenyl 4-{[(5-chlorothiophen-2-yl)formamido](cyclopropyl)methyl}piperidine-1-carboxylate]		10
CC(C)CC(NC(=O)c1ccc(F)cc1)C1CCN(C(=O)Oc2ccncc2F)CC1 (centres unmarked) [Example 47, 3-fluoropyridin-4-yl 4-{1-[(4-fluorophenyl)formamido]-3-methylbutyl}piperidine-1-carboxylate]		10
CC(C)CC(NC(=O)c1ccc(F)cc1)C1CCN(C(=O)Oc2ccnc(F)c2F)CC1 (centres unmarked) [Example 48, 2,3-difluoropyridin-4-yl 4-{1-[(4-fluorophenyl)formamido]-3-methylbutyl}piperidine-1-carboxylate]		10
COc1ncccc1OC(=O)N1CCC([C@H](NC(=O)c2ccc(Cl)cc2)c2ccccc2)CC1 [Example 49, 2-methoxypyridin-3-yl 4-[(S)-[(4-chlorophenyl)formamido](phenyl)methyl]piperidine-1-carboxylate]	8.00	
CC(C)CC(NC(=O)c1ccc(F)cc1)C1CCN(C(=O)Oc2ccc(F)cc2)CC1 (centres unmarked) [Example 50, 4-fluorophenyl 4-{1-[(4-fluorophenyl)formamido]-3-methylbutyl}piperidine-1-carboxylate]		12.6
Cc1nccc(OC(=O)N2CCC(C(CC(C)C)NC(=O)c3ccc(F)cc3)CC2)c1F (centres unmarked) [Example 51, 3-fluoro-2-methylpyridin-4-yl 4-{1-[(4-fluorophenyl)formamido]-3-methylbutyl}piperidine-1-carboxylate]		12.6
CC(NC(=O)c1ccc(Cl)s1)C1CCN(C(=O)Oc2ccccc2)CC1 (centres unmarked) [Example 52, phenyl 4-{1-[(5-chlorothiophen-2-yl)formamido]ethyl}piperidine-1-carboxylate]		15.8
O=C(NC(c1ccccc1)C1CCN(C(=O)Oc2ccccc2)CC1)c1ccc(Cl)c(F)c1 (centres unmarked) [Example 53, phenyl 4-{[(4-chloro-3-fluorophenyl)formamido](phenyl)methyl}piperidine-1-carboxylate]		20
COc1cccc(OC(=O)N2CCC(C(CC(C)C)NC(=O)c3ccc(F)cc3)CC2)c1 (centres unmarked) [Example 54, 3-methoxyphenyl 4-{1-[(4-fluorophenyl)formamido]-3-methylbutyl}piperidine-1-carboxylate]		20
CC(C)CC(NC(=O)c1ccc(F)cc1)C1CCN(C(=O)Oc2ccnc(F)c2)CC1 (centres unmarked) [Example 55, 2-fluoropyridin-4-yl 4-{1-[(4-fluorophenyl)formamido]-3-methylbutyl}piperidine-1-carboxylate]		20
Cc1c(F)cccc1OC(=O)N1CCC([C@@H](C)NC(=O)c2ccccc2)CC1 [Example 56, 3-fluoro-2-methylphenyl 4-[(1R)-1-(phenylformamido)ethyl]piperidine-1-carboxylate]		25.1
COc1ccc(C(=O)NC(c2ccccc2)C2CCN(C(=O)Oc3ccccc3)CC2)cc1F (centres unmarked) [Example 57, phenyl 4-{[(3-fluoro-4-methoxyphenyl)formamido](phenyl)methyl}piperidine-1-carboxylate]		39.8
CC(C)C[C@H](NC(=O)c1ccc(Cl)s1)C1CCN(C(=O)Oc2ccccc2)CC1 [Example 58, phenyl 4-[(1S)-1-[(5-chlorothiophen-2-yl)formamido]-3-methylbutyl]piperidine-1-carboxylate]		39.8
CC(C)CC(NC(=O)c1ccc(F)cc1)C1CCN(C(=O)Oc2ccc(Cl)cc2)CC1 (centres unmarked) [Example 59, 4-chlorophenyl 4-{1-[(4-fluorophenyl)formamido]-3-methylbutyl}piperidine-1-carboxylate]		50.1
